The record followed here is patent publication US10160747B2, “Compounds and methods for kinase modulation, and indications therefor” (Plexxikon Inc., priority 2016, dated 2018).

The test has as its target T1, BA/F3-FLT3-ITD + D835Y (Homo sapiens, UniProt P36888, D835Y, cells depend on it, form not given).
T1 sequence (P36888 with tags, fused parts or gaps INS600HVDFREYEYD/D835Y): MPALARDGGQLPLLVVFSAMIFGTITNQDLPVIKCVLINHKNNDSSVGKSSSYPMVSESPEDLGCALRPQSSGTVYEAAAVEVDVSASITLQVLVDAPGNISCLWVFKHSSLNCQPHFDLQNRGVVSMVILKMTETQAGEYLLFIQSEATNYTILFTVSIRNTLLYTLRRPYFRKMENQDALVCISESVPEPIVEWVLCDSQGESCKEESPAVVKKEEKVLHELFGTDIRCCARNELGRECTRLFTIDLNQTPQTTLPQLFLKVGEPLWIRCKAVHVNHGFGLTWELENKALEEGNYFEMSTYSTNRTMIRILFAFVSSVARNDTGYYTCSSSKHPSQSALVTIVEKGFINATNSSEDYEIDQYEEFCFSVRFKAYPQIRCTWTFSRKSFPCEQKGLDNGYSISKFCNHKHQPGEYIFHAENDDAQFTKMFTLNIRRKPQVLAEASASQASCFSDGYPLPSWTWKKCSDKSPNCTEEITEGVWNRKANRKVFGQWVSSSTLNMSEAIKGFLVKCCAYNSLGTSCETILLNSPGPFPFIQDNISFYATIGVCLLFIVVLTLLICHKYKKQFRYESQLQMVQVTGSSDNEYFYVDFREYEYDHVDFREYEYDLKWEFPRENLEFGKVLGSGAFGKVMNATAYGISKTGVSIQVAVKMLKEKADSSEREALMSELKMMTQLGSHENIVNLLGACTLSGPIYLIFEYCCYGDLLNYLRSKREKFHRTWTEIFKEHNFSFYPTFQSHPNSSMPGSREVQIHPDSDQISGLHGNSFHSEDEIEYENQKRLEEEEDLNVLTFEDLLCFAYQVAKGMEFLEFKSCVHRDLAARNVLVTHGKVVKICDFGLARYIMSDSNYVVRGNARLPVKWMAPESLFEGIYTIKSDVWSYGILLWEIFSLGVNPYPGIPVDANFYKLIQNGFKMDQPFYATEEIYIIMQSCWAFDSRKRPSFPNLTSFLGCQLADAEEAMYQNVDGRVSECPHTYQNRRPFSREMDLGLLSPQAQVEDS
Put plainly: Engineered BA/F3 cell growth assay, FLT3 ITD/D835Y. It counts as cell-based, murine. As to conditions: 3 d growth. A digest of the protocol:
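Murine Ba/F3 cells transfected with full-length FLT3 ITD/D835Y, grown without IL-3 so growth depends on FLT3. Seeded at 1×10^4 cells/well, 8-point 1:3 series to 1 μM top (0.2% DMSO), 3 days at 37 °C. CellTiter-Glo luminescence (ATP) versus concentration gave IC50.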

As a reminder, the GI50 is the concentration at which growth is held to half of that of the control. As for `Cn1cc(Nc2ncc(-c3cc(F)c(CC(=O)Nc4cc(C(F)(F)F)ccn4)cc3F)cn2)cn1` [Compound P-0019, 2-[2,5-difluoro-4-[2-[(1-methylpyrazol-4-yl)amino]pyrimidin-5-yl]phenyl]-N-[4-(trifluoromethyl)-2-pyridyl]acetamide], the GI50 was in the range of 0.0001 to 10 µM.

For `COc1ncc(NC(=O)Cc2cc(F)c(-c3cnc(Nc4cnn(C)c4)nc3)cc2F)cc1C(F)(F)F` [Compound P-0208, 2-[2,5-difluoro-4-[2-[(1-methylpyrazol-4-yl)amino]pyrimidin-5-yl]phenyl]-N-[6-methoxy-5-(trifluoromethyl)-3-pyridyl]acetamide], the GI50 lay in the range of 0.0001 to 10 µM. The value for `O=C(Cc1ccc(-c2cnc(Nc3cnn(C(F)F)c3)nc2)cc1)Nc1cncc(C(F)(F)F)c1` [Compound P-0209, 2-[4-[2-[[1-(difluoromethyl)pyrazol-4-yl]amino]pyrimidin-5-yl]phenyl]-N-[5-(trifluoromethyl)-3-pyridyl]acetamide] was 0.0001 to 10 µM; that for `O=C(Cc1ccc(-c2cnc(Nc3cnn(C4CC4)c3)nc2)cc1)Nc1ccc(C(F)(F)F)nc1` [Compound P-0235, 2-[4-[2-[(1-cyclopropylpyrazol-4-yl)amino]pyrimidin-5-yl]phenyl]-N-[6-(trifluoromethyl)-3-pyridyl]acetamide] was 0.0001 to 10 µM. Next, `CCOc1n[nH]c2ncc(-c3ccc(CC(=O)Nc4cnc(C)c(C(F)(F)F)c4)cc3)cc12` [Compound P-0217, 2-[4-(3-ethoxy-1H-pyrazolo[3,4-b]pyridin-5-yl)phenyl]-N-[6-methyl-5-(trifluoromethyl)-3-pyridyl]acetamide]: 0.0001 to 10 µM; `O=C(Cc1ccc(-c2cnc(Nc3cnn(C4CC4)c3)nc2)cc1F)Nc1ccc(C(F)(F)F)nc1` [Compound P-0242, 2-[4-[2-[(1-cyclopropylpyrazol-4-yl)amino]pyrimidin-5-yl]-2-fluoro-phenyl]-N-[6-(trifluoromethyl)-3-pyridyl]acetamide]: 0.0001 to 10 µM; `CCn1cc(Nc2ncc(-c3cc(F)c(CC(=O)Nc4cnc(OC)c(C(F)(F)F)c4)cc3F)cn2)cn1` [Compound P-0247, 2-[4-[2-[(1-ethylpyrazol-4-yl)amino]pyrimidin-5-yl]-2,5-difluoro-phenyl]-N-[6-methoxy-5-(trifluoromethyl)-3-pyridyl]acetamide]: 0.0001 to 10 µM. In the case of `COc1ncc(NC(=O)Cc2ccc(-c3cnc4[nH]c(-c5ccc(C#N)nc5)cc4c3)cc2F)cc1C(F)(F)F` [Compound P-0011, 2-[4-[2-(6-cyano-3-pyridyl)-1H-pyrrolo[2,3-b]pyridin-5-yl]-2-fluoro-phenyl]-N-[6-methoxy-5-(trifluoromethyl)-3-pyridyl]acetamide], the GI50 lay within 0.0001 to 10 µM. On to `CCn1cc(Nc2ncc(-c3ccc(CC(=O)Nc4cc(C(F)(F)F)ccn4)cc3)cn2)cn1` [Compound P-0250, 2-[4-[2-[(1-ethylpyrazol-4-yl)amino]pyrimidin-5-yl]phenyl]-N-[4-(trifluoromethyl)-2-pyridyl]acetamide], for which the GI50 was 0.0001 to 10 µM.

Consider `O=C(Cc1ccc(-c2cnc(Nc3cnn(C4CC4)c3)nc2)cc1F)Nc1cnc(Cl)c(C(F)(F)F)c1` [Compound P-0240, N-[6-chloro-5-(trifluoromethyl)-3-pyridyl]-2-[4-[2-[(1-cyclopropylpyrazol-4-yl)amino]pyrimidin-5-yl]-2-fluoro-phenyl]acetamide], for which the GI50 is 0.0001 to 10 µM. Next, `Cn1cnc(Nc2ncc(-c3ccc(CC(=O)Nc4cc(C(F)(F)F)ccn4)cc3)cn2)c1` [Compound P-0022, 2-[4-[2-[(1-methylimidazol-4-yl)amino]pyrimidin-5-yl]phenyl]-N-[4-(trifluoromethyl)-2-pyridyl]acetamide]: 0.0001 to 10 µM. Turning to `O=C(Cc1ccc(-c2cnc(Nc3cnn(C4CC4)c3)nc2)cc1)Nc1cc(C(F)(F)F)ccn1` [Compound P-0237, 2-[4-[2-[(1-cyclopropylpyrazol-4-yl)amino]pyrimidin-5-yl]phenyl]-N-[4-(trifluoromethyl)-2-pyridyl]acetamide], the GI50 was in the range of 0.0001 to 10 µM. Consider `CCn1cc(Nc2ncc(-c3ccc(CC(=O)Nc4cnc(OC)c(C(F)(F)F)c4)cc3)cn2)cn1` [Compound P-0253, 2-[4-[2-[(1-ethylpyrazol-4-yl)amino]pyrimidin-5-yl]phenyl]-N-[6-methoxy-5-(trifluoromethyl)-3-pyridyl]acetamide], for which the GI50 lay within 0.0001 to 10 µM. Regarding `CCn1cc(Nc2ncc(-c3ccc(CC(=O)Nc4ccc(C(F)(F)F)cn4)c(F)c3)cn2)cn1` [Compound P-0256, 2-[4-[2-[(1-ethylpyrazol-4-yl)amino]pyrimidin-5-yl]-2-fluoro-phenyl]-N-[5-(trifluoromethyl)-2-pyridyl]acetamide], the GI50 lay within 0.0001 to 10 µM. As for `COc1ncc(NC(=O)Cc2ccc(-c3cnc(Nc4cnn(C5CC5)c4)nc3)cc2F)cc1C(F)(F)F` [Compound P-0241, 2-[4-[2-[(1-cyclopropylpyrazol-4-yl)amino]pyrimidin-5-yl]-2-fluoro-phenyl]-N-[6-methoxy-5-(trifluoromethyl)-3-pyridyl]acetamide], the GI50 was 0.0001 to 10 µM. On to `COc1ncc(NC(=O)Cc2ccc(-c3cnc(Nc4cn[nH]c4C)nc3)cc2)cc1C(F)(F)F` [Compound P-0221, N-[6-methoxy-5-(trifluoromethyl)-3-pyridyl]-2-[4-[2-[(5-methyl-1H-pyrazol-4-yl)amino]pyrimidin-5-yl]phenyl]acetamide], for which the GI50 lay in the range of 0.0001 to 10 µM.

With `Cc1nn(C)cc1Nc1ncc(-c2ccc(CC(=O)Nc3cnc(C)c(C(F)(F)F)c3)cc2)cn1` [Compound P-0228, 2-[4-[2-[(1,3-dimethylpyrazol-4-yl)amino]pyrimidin-5-yl]phenyl]-N-[6-methyl-5-(trifluoromethyl)-3-pyridyl]acetamide], the GI50 was 0.0001 to 10 µM.

For `CCn1cc(Nc2ncc(-c3ccc(CC(=O)Nc4cnc(C)c(C(F)(F)F)c4)c(F)c3)cn2)cn1` [Compound P-0261, 2-[4-[2-[(1-ethylpyrazol-4-yl)amino]pyrimidin-5-yl]-2-fluoro-phenyl]-N-[6-methyl-5-(trifluoromethyl)-3-pyridyl]acetamide], the GI50 was in the range of 0.0001 to 10 µM. Turning to `COc1ncc(NC(=O)Cc2ccc(-c3cnc4[nH]nc(C5CC5)c4c3)cc2F)cc1C(F)(F)F` [Compound P-0262, 2-[4-(3-cyclopropyl-1H-pyrazolo[3,4-b]pyridin-5-yl)-2-fluoro-phenyl]-N-[6-methoxy-5-(trifluoromethyl)-3-pyridyl]acetamide], the GI50 lay in the range of 0.0001 to 10 µM. `Cn1cc(Nc2ncc(-c3cc(F)c(CC(=O)Nc4cncc(C(F)(F)F)c4)cc3F)cn2)cn1` [Compound P-0207, 2-[2,5-difluoro-4-[2-[(1-methylpyrazol-4-yl)amino]pyrimidin-5-yl]phenyl]-N-[5-(trifluoromethyl)-3-pyridyl]acetamide]: the GI50 was 0.0001 to 10 µM. In the case of `COc1n[nH]c2ncc(-c3ccc(CC(=O)Nc4cnc(C)c(C(F)(F)F)c4)cc3)cc12` [Compound P-0218, 2-[4-(3-methoxy-1H-pyrazolo[3,4-b]pyridin-5-yl)phenyl]-N-[6-methyl-5-(trifluoromethyl)-3-pyridyl]acetamide], the GI50 is 0.0001 to 10 µM.

Consider `CCn1cc(Nc2ncc(-c3ccc(CC(=O)Nc4cncc(C(F)(F)F)c4)c(F)c3)cn2)cn1` [Compound P-0258, 2-[4-[2-[(1-ethylpyrazol-4-yl)amino]pyrimidin-5-yl]-2-fluoro-phenyl]-N-[5-(trifluoromethyl)-3-pyridyl]acetamide], for which the GI50 fell in the range of 0.0001 to 10 µM. For the compound `CCn1cc(Nc2ncc(-c3ccc(CC(=O)Nc4cc(C(F)(F)F)ccn4)c(F)c3)cn2)cn1` [Compound P-0255, 2-[4-[2-[(1-ethylpyrazol-4-yl)amino]pyrimidin-5-yl]-2-fluoro-phenyl]-N-[4-(trifluoromethyl)-2-pyridyl]acetamide], the GI50 was 0.0001 to 10 µM. In the case of `Cn1cc(Nc2ncc(-c3ccc(CC(=O)Nc4cncc(C(F)(F)F)c4)cc3F)cn2)cn1` [Compound P-0205, 2-[3-fluoro-4-[2-[(1-methylpyrazol-4-yl)amino]pyrimidin-5-yl]phenyl]-N-[5-(trifluoromethyl)-3-pyridyl]acetamide], the GI50 was in the range of 0.0001 to 10 µM.

Regarding `COc1cc(-c2cc3cc(-c4ccc(CC(=O)Nc5cncc(C(F)(F)F)c5)cc4F)cnc3[nH]2)ccn1` [Compound P-0200, 2-(3-fluoro-4-(2-(2-methoxypyridin-4-yl)-1H-pyrrolo[2,3-b]pyridin-5-yl)phenyl)-N-(5-(trifluoromethyl)pyridin-3-yl)acetamide], the GI50 was in the range of 0.0001 to 10 µM.
